Assay results from publication PMC7070443, “New Hybrid Pyrazole and Imidazopyrazole Antinflammatory Agents Able to Reduce ROS Production in Different Biological Targets” (Molecules, 2020).

Key:
[1] = target: PDE5 (Homo sapiens, UniProt O76074); assay: Preliminary PDE selectivity evaluation; type: biochemical; settings: 10 µM; data not shown
[2] = target: PDE2 (Homo sapiens, UniProt O00408); assay: Preliminary PDE selectivity evaluation; type: biochemical; settings: 10 µM; data not shown
[3] = system: PDE1; assay: Preliminary PDE selectivity evaluation; type: biochemical; settings: 10 µM; data not shown
[4] = system: PDE3; assay: Preliminary PDE selectivity evaluation; type: biochemical; settings: 10 µM; data not shown
[5] = system: human platelets; assay: ROS production inhibition in thrombin-stimulated washed platelets (DCFH-DA, flow cytometry); type: cell-based; settings: for IC50: washed human platelets, 0.1 U/mL thrombin, DCFH-DA, mean +/- SD, at least six experiments in duplicate
Protocol: (§1) Freshly drawn venous blood from healthy volunteers of the “Centro Trasfusionale, Ospedale San Martino” in Genoa was collected into 130 mM aqueous trisodium citrate anticoagulant solution (9:1). The donors claimed to have not taken drugs known to interfere with platelet function during two weeks prior to blood collection and gave their informed consent. Washed platelets were prepared centrifuging whole blood at 100× g for 20 min. The obtained platelet-rich plasma was then centrifuged at 1100× g for 15 min. Pellet was washed once with pH 5.2 ACD solution (75 mM trisodium citrate, 42 mM citric acid and 136 mM glucose), centrifuged at 1100× g for 15 min and then re-suspended in pH 7.4 Hepes buffer (145 mM NaCl, 5 mM KCl, 1 mM MgSO4, 10 mM glucose, 10 mM HEPES).
ROS production was quantified as previously reported by DCFH-DA, a ROS-sensitive probe that yields upon oxidation the fluorescent adduct DCF that is trapped inside the cells. Briefly, washed platelets (1.0 × 10^8/mL), pre-incubated with saline, compounds 4 or 5, for 15 min at 37 °C, were stimulated by 0.1 U/mL thrombin. Incubation was stopped by cooling samples in ice bath and then samples were immediately analyzed in a Merck Millipore Bioscience Guava easyCyte flow cytometer (Merk Millipore, Burlington, MA, USA). The reported IC50 value is the molar concentration of the compound able to obtain 50% inhibition of the […] induced by the agonist and is calculated by the percentage of inhibition that is the inhibition of the […] measured in the presence of the agent compared with that measured in a control sample containing saline, carried out under the same conditions.

[6] = system: human neutrophils; assay: Cell vitality by propidium iodide (PI) method in neutrophils; type: cell-based; settings: 10 µM
Protocol: (§2) In the same test, cell vitality in presence of 4d (10 µM) was assessed by propidium iodide (PI) method at the end of the incubation time. In detail, in the same tubes we added PI staining solution (10 μg/mL, Invitrogen ThermoFisher Scientific, Waltham, MA, USA) to detect dead cells. PI is excited at 488 nm and, emits at a maximum wavelength of 617 nm. Because of these spectral characteristics, PI can be used in combination with other fluorochromes excited at 488 nm such as fluorescein isothiocyanate (FITC). Auto-fluorescence levels of sample were measured and subtracted from each analysis. Data were expressed as mean fluorescence intensity ((MFI), compared with the expression on cells stimulated with control medium alone (defined as 100%)).

[7] = as above; type: cell-based; settings: human, human neutrophils, PI method
Protocol: as §2

[8] = target: T1, PDE4D3 (Homo sapiens, UniProt Q08499); assay: PDE4 enzymatic assay (IMAP fluorescence polarisation); type: biochemical; settings: for inhibition at 10 µM: in duplicate, read-out: inhibition of PDE4D3, preliminary test; for IC50: human recombinant enzyme
T1 construct: host or cells: Spodoptera frugiperda (Sf9), baculovirus
Protocol: (§3) PDE4 tests were performed by Scottish Biomedical Drug Discovery (Scottish, Biomedical Drug Discovery, Glasgow, UK) using human recombinant enzyme obtained from Spodoptera frugiperda (Sf9) cells using a baculovirus expression system (PDE enzyme at 0.5 U/mL in 20 mM Tris.HCl pH 7.4) as previously reported. IMAP technology is based on the high affinity binding of phosphate by immobilized metal coordination complexes on nanoparticles. The binding reagent complexes with phosphate groups on nucleotide monophosphate generated from cyclic nucleotides ([…]) through phosphodiesterases. With fluorescence polarisation detection, binding causes a change in the rate of the molecular motion of the phosphate bearing molecule, and results in an increase in the fluorescence polarization value observed for the fluorescent label attached to the substrate.
(§4) Title compounds 4d and 5d were solved in DMSO at 10^−2 M concentration and then diluted with water to the final suitable concentrations. All our subsequent assays were performed in 3% DMSO (final). All the compounds were tested preliminary at 10 µM concentration, in duplicate.
(§5) In all the experiments, Rolipram as reference compound (at 10 μM for PDE4B2 and 1 μM for PDE4D3) was tested at nine concentrations, in duplicate, to obtain an inhibition curve in order to validate this experiment.
(§6) Being inhibition >50%, 4d and 5d have been further tested in the same assay at five different concentrations (5 × 10^−8–10^−4 M) and IC50 values were determined by nonlinear regression analysis of the inhibition curve, using Hill equation curve fitting (Graph Pad Prism software, version 5.0a).

[9] = target: T2, PDE4B2 (Homo sapiens, UniProt Q07343); assay: as above; type: biochemical; settings: for inhibition at 10 µM: in duplicate, read-out: inhibition of PDE4B2, preliminary test; for IC50: human recombinant enzyme
T2 construct: host or cells: Spodoptera frugiperda (Sf9), baculovirus
Protocol: as §3, §4, §5, §6

[10] = system: human neutrophils; assay: Neutrophil chemotaxis inhibition (fMLP stimulated); type: cell-based; settings: data not shown
[11] = system: human neutrophils; assay: Flow cytometric evaluation of ROS production in fMLP-activated neutrophils (DCFH-DA); type: cell-based; settings: for inhibition at 10 µM: Homo sapiens, Neutrophil, DCFH-DA method, read-out: ROS production inhibition percentage
Source text: Heparinized (heparin 10 U/mL Vister, PfizerItalia, Borgo San Michele, Latina, Italy) venous blood was obtained from healthy male volunteers after written informed consent. Neutrophils were isolated by dextran sedimentation (Dextran 70.000 Plander, Fresenius Kabi Italia, Verona, Italy), and subsequent centrifugation on a Ficoll-Hypaque density gradient (Lympholyte-I from Cedarlane Laboratories Ltd. Hornby, ON, Canada), as described. Contaminating erythrocytes were removed by hypotonic lysis. Neutrophils were washed and resuspended in Hanks’balanced salt solution (HBSS; EuroCLone, Wetherby West, Yorkshire, UK) mixed with Dulbecco’s PBS (EuroClone; HBBS:PBS. Final cell suspensions contained 97% or more neutrophils and more than 98% viable cells, as evaluated by a trypan blue test kit (Sigma Aldrich).
Flow cytometric analysis of neutrophil oxidative metabolism was carried out according to literature method. Briefly, neutrophils, were cultured for 1 h with or without 4d and 5d at different concentration. Thereafter, neutrophils were pre-treated with 2′-7′-dichlorofluorescein-diacetate (DCFH-DA; Sigma, Milan, Italy) ([…]), During the incubation time, DCFH-DA entered into the cells, and it was cleaved by intracellular esterases to give non-fluorescence DCFH trapped within the cells. After washing in PBS, the cells were incubated for 15 min at room temperature in the presence or absence of N-formyl-L-methionin-L-leucyl-L-phenylalanine (fMLP; Sigma, Milan, Italy) ([…]) for 30 min at 37 °C. During this period, intracellular ROS oxidized DCFH to give a green fluorescence […]. The reaction was stopped by keeping the samples on ice before being analyzed by flow cytometry (FC500, Beckman Coulter).

[12] = system: human platelets; assay: Platelet aggregation inhibition (Born's method, thrombin-stimulated washed platelets); type: cell-based; settings: Platelet, 0.1 U/mL thrombin, mean +/- SD, at least six experiments in duplicate
Protocol: as §1
Platelet aggregation was performed in a Bio-Data Aggregometer (Bio-Data Corporation, Horsham, PA, USA) according to Born’s method and quantified by the light transmission reached within 6 min at 37 °C. Briefly, washed platelets (3.0 × 10^8/mL) were pre-incubated for 3 min at 37 °C with saline, compound 4 or 5 before the addition of 0.1 U/mL thrombin. The IC50 values were calculated as above detailed.

[13] = system: PDE7; assay: Preliminary PDE selectivity evaluation; type: biochemical; settings: 10 µM; data not shown
[14] = system: PDE4D3; settings: Figure 2; cited from earlier work

T2 sequence (Q07343 1-564 isoform Q07343-2): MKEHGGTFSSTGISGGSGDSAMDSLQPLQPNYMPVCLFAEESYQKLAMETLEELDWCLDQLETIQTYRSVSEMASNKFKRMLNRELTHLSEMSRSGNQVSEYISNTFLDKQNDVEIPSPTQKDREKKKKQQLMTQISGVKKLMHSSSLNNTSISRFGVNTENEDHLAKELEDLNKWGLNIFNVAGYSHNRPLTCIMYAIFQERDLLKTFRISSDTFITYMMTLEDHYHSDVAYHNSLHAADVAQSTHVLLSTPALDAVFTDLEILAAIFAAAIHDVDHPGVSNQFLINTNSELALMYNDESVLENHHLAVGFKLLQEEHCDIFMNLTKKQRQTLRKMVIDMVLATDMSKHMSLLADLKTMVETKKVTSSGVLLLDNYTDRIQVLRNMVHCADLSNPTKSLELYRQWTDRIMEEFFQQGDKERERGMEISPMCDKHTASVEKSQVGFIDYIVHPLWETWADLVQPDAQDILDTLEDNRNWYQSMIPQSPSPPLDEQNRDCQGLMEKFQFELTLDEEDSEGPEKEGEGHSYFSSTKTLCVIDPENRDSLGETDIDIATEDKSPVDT
T1 sequence (Q08499 1-673 isoform Q08499-2): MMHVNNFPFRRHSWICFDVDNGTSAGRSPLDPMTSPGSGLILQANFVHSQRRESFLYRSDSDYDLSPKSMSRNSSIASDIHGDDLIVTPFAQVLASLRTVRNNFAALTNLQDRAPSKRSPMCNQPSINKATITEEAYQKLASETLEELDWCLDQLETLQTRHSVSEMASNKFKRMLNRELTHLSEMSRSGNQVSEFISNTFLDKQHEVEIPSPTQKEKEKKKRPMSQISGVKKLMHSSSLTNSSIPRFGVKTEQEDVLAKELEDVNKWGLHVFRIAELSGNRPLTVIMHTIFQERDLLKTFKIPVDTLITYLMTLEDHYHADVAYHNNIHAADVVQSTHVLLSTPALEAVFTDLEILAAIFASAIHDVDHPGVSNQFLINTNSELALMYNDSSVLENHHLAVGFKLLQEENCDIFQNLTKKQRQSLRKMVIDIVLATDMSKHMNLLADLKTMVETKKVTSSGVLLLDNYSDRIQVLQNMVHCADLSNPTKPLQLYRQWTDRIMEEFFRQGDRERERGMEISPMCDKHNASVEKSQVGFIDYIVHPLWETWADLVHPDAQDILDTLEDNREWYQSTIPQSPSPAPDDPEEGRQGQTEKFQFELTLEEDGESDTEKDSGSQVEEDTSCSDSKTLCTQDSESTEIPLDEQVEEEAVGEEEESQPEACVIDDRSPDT
Sequence of PDE2 (O00408 whole entry): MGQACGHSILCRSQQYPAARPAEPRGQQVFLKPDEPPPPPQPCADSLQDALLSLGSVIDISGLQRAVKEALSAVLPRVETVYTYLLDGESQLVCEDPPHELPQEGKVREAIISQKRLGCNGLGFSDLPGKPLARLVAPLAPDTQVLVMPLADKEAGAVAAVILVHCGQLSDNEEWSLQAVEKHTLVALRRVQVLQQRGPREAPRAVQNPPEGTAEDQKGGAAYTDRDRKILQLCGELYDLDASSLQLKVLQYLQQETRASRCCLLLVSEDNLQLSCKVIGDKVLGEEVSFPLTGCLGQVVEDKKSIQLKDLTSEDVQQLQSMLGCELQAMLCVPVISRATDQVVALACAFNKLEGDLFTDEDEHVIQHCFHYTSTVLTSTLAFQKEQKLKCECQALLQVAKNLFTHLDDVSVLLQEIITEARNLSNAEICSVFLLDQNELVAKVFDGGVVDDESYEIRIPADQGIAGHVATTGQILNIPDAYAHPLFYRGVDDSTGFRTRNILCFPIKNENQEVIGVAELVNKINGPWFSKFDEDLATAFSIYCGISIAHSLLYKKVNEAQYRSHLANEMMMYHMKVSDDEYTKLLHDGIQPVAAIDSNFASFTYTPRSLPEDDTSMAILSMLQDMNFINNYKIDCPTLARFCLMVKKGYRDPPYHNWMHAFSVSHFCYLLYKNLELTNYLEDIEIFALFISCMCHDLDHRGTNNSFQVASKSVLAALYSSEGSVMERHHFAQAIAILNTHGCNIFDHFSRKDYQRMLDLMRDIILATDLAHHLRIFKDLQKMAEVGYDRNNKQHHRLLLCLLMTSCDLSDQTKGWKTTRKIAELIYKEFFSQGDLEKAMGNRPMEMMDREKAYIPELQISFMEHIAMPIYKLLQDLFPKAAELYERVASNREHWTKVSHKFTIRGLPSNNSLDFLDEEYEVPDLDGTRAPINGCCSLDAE

Compound | IC50 ([5]; Homo sapiens, Platelet) | cytotoxic action (PI method) [6] | inhibition at 10 µM [8] | IC50 [8] | inhibition at 10 µM [9] | IC50 [9] | chemotaxis inhibition [10] | inhibition at 10 µM [11] | IC50 [12] | IC50 [14] | also measured
COc1ccc(/C=N/NC(=O)c2cnn(CC(O)c3ccccc3)c2N)cc1OC1CCCC1 (stereo not drawn) [4d, (E)-5-Amino-N′-(3-(cyclopentyloxy)-4-methoxybenzylidene)-1-(2-hydroxy-2-phenylethyl)-1H-pyrazole-4-carbohydrazide] | 40 µM | no cytotoxic action | > 50% | 1.05 µM | > 50% | 0.55 µM | very low or absent | 68% | 29.8 ± 3.7 µM | – | inhibition of PDE5 [1]: no inhibition; inhibition of PDE2 [2]: no inhibition; inhibition of PDE1 [3]: no inhibition; inhibition of PDE3 [4]: no inhibition; IC50 [5]: 38.3 ± 2.8 µM; viability at 10 µM [7]: > 95%; inhibition of PDE7 [13]: no inhibition
COc1ccc(/C=N/NC(=O)c2cnn3c2NC(c2ccccc2)C3)cc1OC1CCCC1 (stereo not drawn) [5d, (E)-N′-(3-(cyclopentyloxy)-4-methoxybenzylidene)-2-phenyl-2,3-dihydro-1H-imidazo[1,2-b]pyrazole-7-carbohydrazide] | 70.6 ± 7.4 µM | no cytotoxic action | > 50% | 1.22 µM | > 50% | 0.55 µM | very low or absent | 63% | 71 ± 6.8 µM | – | –
COc1ccc(/C=N/OCC(O)CN2CC(C)OC(C)C2)cc1OC1CCCC1 (stereo not drawn) [GEBR-4a] | – | – | – | – | – | – | – | – | – | 2.8 µM | –
COc1ccc(-c2ccn(CC(O)CN3CCOCC3)n2)cc1OC1CCCC1 (stereo not drawn) [GEBR-54] | – | – | – | – | – | – | – | – | – | 7.6 µM | –
NNC(=O)c1cnn(CC(O)c2ccccc2)c1N (stereo not drawn) [compound 7, 5-Amino-1-(2-hydroxy-2-phenylethyl)-1H-pyrazole-4-carbohydrazide] | – | – | – | – | – | – | – | – | – | – | activity towards ROS production in platelets (in words) ([5]; human platelets, thrombin stimulated): completely inactive; melting point: 183 to 184 °C; activity towards ROS production in neutrophils (in words) ([11]; data not shown): completely inactive
